Values quoted from earlier work in patent publication US11357716B2, “Sunscreen compositions” (Kobo Products, Inc., priority 2016, dated 2022).

Legend:
[1] = Active: BEMT 4%
[2] = Active: BEMT 4%; remark: listed apart in the source

With `CCCCC(CC)COc1ccc(-c2nc(-c3ccc(OC)cc3)nc(-c3ccc(OCC(CC)CCCC)cc3O)n2)c(O)c1` (centres unmarked) [BEMT, bis-ethylhexyloxyphenol methoxyphenyl triazine] as the compound, how does the SPF in vivo [1] read?
Its SPF in vivo is “in vivo = 7.3 ± 1.2”.

What about the UVA-PF in vivo [2] of the same compound?
The UVA-PF in vivo was “in vivo = 7.6 ± 2.2”.
